In patent publication US20250375475A1 (priority 2024, published 2025):

Legend:
[1] = natural zinc, blood to brain across the BBB; cited from earlier work
CD206 = CD206 expression (FIG. 5)
astroglia = details: FIG. 2
microglia = assay: Reactive oxygen species in microglia (FIG. 6)
circulating leukocytes = assay: Absolute number of circulating leukocytes (FIG. 3); details: rodents
microglia/macrophages = details: FIG. 7; LPS-lesioned rats

Row | Compound | zinc in the blood taken up by brain tissues [1] | CD206 expression (CD206) | GFAP in blood (GFAP; FIG. 1A, blood) | GFAP in the brain and periphery (GFAP; FIG. 1B, brain and periphery) | inflammation as evidenced by astroglia (astroglia) | reactive oxygen species in microglia (microglia) | absolute number of circulating leukocytes (circulating leukocytes) | oxidative stress as indicated by metabolic characteristics of microglia/macrophages (microglia/macrophages)
1 | [Zn] [zinc] | 2-3% |  |  |  |  |  |  | 
2 | ^64Zn L-Aspartate |  | reduction | significant reduction | significant reduction | lowered the inflammation significantly | reduction | normalization | significantly reduced oxidative stress
